Experimental data: patent US10562878B2, “Cycloalkylamines as monoamine reuptake inhibitors” (Sunovion Pharmaceuticals Inc., priority 2006, dated 2020)
Where a name gives a salt, the structure may show the parent alone. Read-outs that look alike come from different tables or passages of the source.

What was measured:
[1] = in vivo; cited from earlier work
[2] = molecular target: DA Transporter (DAT) sites in mouse brain (Mus musculus (Mouse), UniProt Q61327); test: Ex vivo [3H] WIN 35428 binding to DAT sites in mouse brain after oral dosing; conditions: mice, 60 min after treatment
mice [3] = test: Mouse tail suspension test; format: in vivo
[4] = molecular target: T1, Norepinephrine Transporter (NET) sites in mouse brain (Mus musculus (Mouse), UniProt O55192); test: in vivo; conditions: po, read-out: NET % Transporter Occupancy
[5] = molecular target: 5-HT Transporter (SERT) sites in mouse brain (Mus musculus (Mouse), UniProt Q60857); test: Ex vivo [3H] citalopram binding to SERT sites in mouse brain after oral dosing; conditions: mice, 60 min after treatment
Rats = test: Rat forced swim test; format: in vivo
[6] = molecular target: T1, Norepinephrine Transporter (NET) sites in mouse brain; conditions: mice, 60 min after treatment
mice [7] = test: Mouse locomotor activity; format: in vivo
[8] = molecular target: human dopamine transporter (Homo sapiens (Human), UniProt Q01959); test: Dopamine functional uptake assay, recombinant human transporter in CHO-K1 or HEK293 cells; format: cell-based; conditions: read-out: hDAT IC50
Chain of human dopamine transporter (Q01959 whole entry): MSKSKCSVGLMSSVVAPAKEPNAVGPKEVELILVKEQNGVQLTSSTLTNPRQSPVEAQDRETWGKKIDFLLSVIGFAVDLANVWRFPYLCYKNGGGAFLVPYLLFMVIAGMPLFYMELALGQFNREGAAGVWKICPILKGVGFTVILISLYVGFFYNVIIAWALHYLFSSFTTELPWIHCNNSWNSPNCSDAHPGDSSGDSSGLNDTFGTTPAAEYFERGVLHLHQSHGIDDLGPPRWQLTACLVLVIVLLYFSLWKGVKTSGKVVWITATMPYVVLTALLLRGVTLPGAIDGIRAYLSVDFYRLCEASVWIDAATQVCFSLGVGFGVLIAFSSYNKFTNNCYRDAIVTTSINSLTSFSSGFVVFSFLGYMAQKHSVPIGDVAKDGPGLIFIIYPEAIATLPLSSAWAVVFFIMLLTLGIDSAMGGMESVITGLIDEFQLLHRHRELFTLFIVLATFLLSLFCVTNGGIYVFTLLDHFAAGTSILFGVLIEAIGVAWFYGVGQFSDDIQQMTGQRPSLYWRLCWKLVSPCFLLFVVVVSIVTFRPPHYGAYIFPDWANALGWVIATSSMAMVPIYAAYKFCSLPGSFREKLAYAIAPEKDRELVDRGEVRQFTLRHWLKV

[9] = molecular target: rat dopamine reuptake transporter (Rattus norvegicus (Rat), UniProt P23977); test: Dopamine functional uptake assay, rat striatal synaptosomes; format: biochemical; conditions: read-out: rDAT IC50
[10] = molecular target: human serotonin transporter (Homo sapiens (Human), UniProt P31645); test: Serotonin functional uptake assay, recombinant human transporter in HEK-293 cells; format: cell-based; conditions: Human serotonin transporter uptake; read-out: hSERT IC50
Chain of human serotonin transporter (P31645 whole entry): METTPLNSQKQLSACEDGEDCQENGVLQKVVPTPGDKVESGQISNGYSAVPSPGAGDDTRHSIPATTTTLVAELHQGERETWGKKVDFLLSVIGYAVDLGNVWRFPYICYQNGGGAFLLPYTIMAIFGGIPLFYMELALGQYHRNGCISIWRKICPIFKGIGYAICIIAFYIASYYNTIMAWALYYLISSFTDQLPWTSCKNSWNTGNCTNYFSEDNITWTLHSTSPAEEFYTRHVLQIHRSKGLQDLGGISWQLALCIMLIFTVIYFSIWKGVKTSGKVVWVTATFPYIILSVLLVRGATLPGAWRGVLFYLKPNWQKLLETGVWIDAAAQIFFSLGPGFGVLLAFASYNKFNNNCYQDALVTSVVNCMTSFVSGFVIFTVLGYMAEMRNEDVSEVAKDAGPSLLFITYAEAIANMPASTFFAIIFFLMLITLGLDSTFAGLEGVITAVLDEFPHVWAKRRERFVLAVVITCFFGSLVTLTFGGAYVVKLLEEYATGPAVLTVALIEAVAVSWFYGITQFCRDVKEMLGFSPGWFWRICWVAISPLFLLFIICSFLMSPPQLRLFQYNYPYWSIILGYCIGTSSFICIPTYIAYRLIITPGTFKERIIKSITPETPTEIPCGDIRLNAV

[11] = molecular target: rat serotonin (5-HT) reuptake transporter (Rattus norvegicus (Rat), UniProt P31652); test: Serotonin functional uptake assay, rat synaptosomes; format: biochemical; conditions: read-out: rSERT IC50
[12] = molecular target: human norepinephrine reuptake transporter (Homo sapiens (Human), UniProt P23975); conditions: cited from earlier work

Row | SMILES | DAT Mean Specific Binding ± S.E.M. ([2]; 1 mg/kg PO) | DAT Mean Specific Binding ± S.E.M. ([2]; 3 mg/kg PO) | DAT Mean Specific Binding ± S.E.M. ([2]; 10 mg/kg PO) | DAT Mean Specific Binding ± S.E.M. ([2]; 30 mg/kg PO) | Mouse Tail Suspension Mean Immobility Time ± S.E.M. (mice [3]; 10 mg/kg PO) | Mouse Tail Suspension Mean Immobility Time ± S.E.M. (mice [3]; 30 mg/kg PO) | Rat Forced Swim Climbing (Means ± S.E.M.) (Rats; 3 mg/kg PO) | Rat Forced Swim Immobility (Means ± S.E.M.) (Rats; 3 mg/kg PO) | Rat Forced Swim Swimming (Means ± S.E.M.) (Rats; 3 mg/kg PO) | Rat Forced Swim Climbing (Means ± S.E.M.) (Rats; 10 mg/kg PO) | Rat Forced Swim Immobility (Means ± S.E.M.) (Rats; 10 mg/kg PO) | Rat Forced Swim Swimming (Means ± S.E.M.) (Rats; 10 mg/kg PO) | Rat Forced Swim Climbing (Means ± S.E.M.) (Rats; 30 mg/kg PO) | Rat Forced Swim Immobility (Means ± S.E.M.) (Rats; 30 mg/kg PO) | Rat Forced Swim Swimming (Means ± S.E.M.) (Rats; 30 mg/kg PO) | NET Mean Specific Binding ± S.E.M. ([6]; 1 mg/kg PO) | NET Mean Specific Binding ± S.E.M. ([6]; 3 mg/kg PO) | NET Mean Specific Binding ± S.E.M. ([6]; 10 mg/kg PO) | NET Mean Specific Binding ± S.E.M. ([6]; 30 mg/kg PO) | IC50 [8] | further results
1 | Clc1ccc(C23CNCC2C3)cc1Cl (single isomer, unassigned) [DOV 21,947, H-1-(3,4-dichlorophenyl)-3-azabicyclo[3.1.0]hexane] | – | – | – | – | – | – | – | – | – | – | – | – | – | – | – | – | – | – | – | – | immobility in the tail suspension test [1]: dose-dependent reduction in immobility
2 | CN[C@H](C)C1(c2ccc(Cl)c(Cl)c2)CCCCC1 (stereo in doubt) [48 E1, 1-(1-(3,4-dichlorophenyl)cyclohexyl)-N-methylethanamine hydrochloride] | 20656 ± 1531 dpm | 18039 ± 1265 dpm | 9792 ± 977 dpm | 3173 ± 541 dpm | 174.1 ± 5.8 | 134.5 ± 9.6 | 7.1 ± 0.6 | 49.6 ± 1.5 | 3.7 ± 1.0 | 17.9 ± 2.5 | 35.6 ± 3.5 | 6.5 ± 1.6 | 20.6 ± 2.9 | 26.9 ± 4.4 | 9.7 ± 1.7 | 2111 ± 119 dpm | 1911 ± 144 dpm | 954 ± 115 dpm | 346 ± 55 dpm | – | receptor occupancy at 1 mg/kg ([2]; mouse, 1 mg/kg PO): -1%; receptor occupancy at 3 mg/kg ([2]; mouse, 3 mg/kg PO): 11%; receptor occupancy at 10 mg/kg ([2]; mouse, 10 mg/kg PO): 52%; receptor occupancy at 30 mg/kg ([2]; mouse, 30 mg/kg PO): 84%; receptor occupancy at 1 mg/kg [4]: 12%; receptor occupancy at 3 mg/kg [4]: 21%; receptor occupancy at 10 mg/kg [4]: 60%; receptor occupancy at 30 mg/kg [4]: 86%; receptor occupancy at 1 mg/kg ([5]; mouse, 1 mg/kg PO): -1%
3 | CNCC1(c2ccc(Cl)c(Cl)c2)CCCCC1 [Compound 75, 1-(1-(3,4-dichlorophenyl)cyclohexyl)-N-methylmethanamine (hydrochloride)] | – | – | – | – | 177.7 ± 5.8 | 143.5 ± 5.8 | – | – | – | – | – | – | – | – | – | – | – | – | – | – | Mouse Locomotor Activity Total Distance Traveled ± S.E.M. (mice [7]; 3 mg/kg PO): 653.5 ± 48.4; Mouse Locomotor Activity Total Distance Traveled ± S.E.M. (mice [7]; 10 mg/kg PO): 608.8 ± 83.4; Mouse Locomotor Activity Total Distance Traveled ± S.E.M. (mice [7]; 30 mg/kg PO): 655.3 ± 117.7; Mouse Tail Suspension Mean Immobility Time ± S.E.M. (mice [3]; 3 mg/kg PO): 187.8 ± 9.6
4 | CN(C)C[C@]1(c2ccc3ccccc3c2)CC[C@](C)(O)CC1 [Compound 225, (1s,4s)-4-((dimethylamino)methyl)-1-methyl-4-(naphthalen-2-yl)cyclohexanol] | 19787 ± 3338 dpm | 21666 ± 3698 dpm | 18872 ± 2775 dpm | 14618 ± 1209 dpm | 137.8 ± 5.2 | 136.3 ± 2.5 | 8.4 ± 1.7 | 50.8 ± 1.8 | 0.8 ± 0.3 | 11.1 ± 2.7 | 47.6 ± 3.0 | 1.2 ± 0.6 | 25.0 ± 4.6 | 33.4 ± 4.8 | 1.1 ± 0.5 | 1170 ± 68 dpm | 813 ± 64 dpm | 393 ± 21 dpm | 230 ± 33 dpm | 167 nM | Mouse Locomotor Activity Total Distance Traveled ± S.E.M. (mice [7]; 0.3 mg/kg PO): 519.5 ± 56.4; Mouse Locomotor Activity Total Distance Traveled ± S.E.M. (mice [7]; 1 mg/kg PO): 423.4 ± 62.3; SERT Mean Specific Binding ± S.E.M. ([5]; 1 mg/kg PO): 3842 ± 152 dpm; SERT Mean Specific Binding ± S.E.M. ([5]; 3 mg/kg PO): 2118 ± 139 dpm; SERT Mean Specific Binding ± S.E.M. ([5]; 10 mg/kg PO): 904 ± 35 dpm; SERT Mean Specific Binding ± S.E.M. ([5]; 30 mg/kg PO): 414 ± 37 dpm
5 | CN(C)C[C@]1(c2ccc(Cl)c(Cl)c2)CC[C@H](O)CC1 [Compound 288, (1s,4s)-4-(3,4-dichlorophenyl)-4-((dimethylamino)methyl)-cyclohexanol] | – | – | – | – | – | – | – | – | – | – | – | – | – | – | – | – | – | – | – | 22 nM | IC50 [9]: 370 nM; IC50 [10]: 84 nM; IC50 [11]: 67 nM
6 | COC(=O)C(c1ccccc1)C1CCCCN1 (stereo not drawn) [methylphenidate] | – | – | – | – | – | – | – | – | – | – | – | – | – | – | – | – | – | – | – | – | reported potency (IC50 or Ki), inhibition of human norepinephrine reuptake transporter [12]: 38 nM
